The test system of assay [1] is Plasmodium falciparum. The experiment in a line: microbe, parasite or virus in culture.
Description: In vitro antimalarial activity against Plasmodium falciparum resistant W-2
Assay [2] deals with Plasmodium falciparum. The assay is described as follows: microbe, parasite or virus in culture. The source holds these as a separate data set.
Description: In vitro antimalarial activity against Plasmodium falciparum (Ghana)

Structures are written as SMILES.

For `C[C@H]1[C@@H](CCOC(=O)C2CCCCC2C(=O)O)O[C@@H]2O[C@]3(C)CC[C@H]4[C@H](C)CC[C@@H]1[C@@]24OO3` (some centres not stated), the IC50 in assay [1] worked out at 0.4 nM; in assay [2], 0.5 nM. Regarding `C[C@H]1[C@@H](CCOC(=O)C2CC=CCC2C(=O)O)O[C@@H]2O[C@]3(C)CC[C@H]4[C@H](C)CC[C@@H]1[C@@]24OO3` (some centres not stated), the IC50 in assay [1] turned out to be 0.4 nM; in assay [2], 0.5 nM. On the same counts, the results for `C[C@H]1[C@@H](CCNCc2ccccn2)O[C@@H]2O[C@]3(C)CC[C@H]4[C@H](C)CC[C@@H]1[C@@]24OO3` are 2 nM and 2 nM.

For the compound `C[C@H]1[C@@H](CCNCCc2ccccc2)O[C@@H]2O[C@]3(C)CC[C@H]4[C@H](C)CC[C@@H]1[C@@]24OO3`, the values for the IC50 in assay [1] and in assay [2] were 20 nM and 11 nM, respectively. On the same counts, the results for `C[C@H]1[C@@H](CCOC(=O)CCC(=O)O)O[C@@H]2O[C@]3(C)CC[C@H]4[C@H](C)CC[C@@H]1[C@@]24OO3` are 0.4 nM and 0.5 nM. In the case of `CCCNCC[C@H]1O[C@@H]2O[C@]3(C)CC[C@H]4[C@H](C)CC[C@@H]([C@H]1C)[C@@]24OO3`, the IC50 in assay [1] is 3 nM; in assay [2] it was 1 nM. On the same counts, the results for `C[C@H]1[C@@H](CCNCc2cccnc2)O[C@@H]2O[C@]3(C)CC[C@H]4[C@H](C)CC[C@@H]1[C@@]24OO3` are 1 nM and 1 nM. Regarding `C[C@H]1[C@@H](CCO)O[C@@H]2OC3(C)CC[C@H]4[C@H](C)CC[C@@H]1[C@@]24OO3` (single isomer, unassigned), the IC50 in assay [1] and in assay [2] was 1 nM in each case. With `C[C@@H]1CC[C@H]2[C@@H](C)C(=O)O[C@@H]3O[C@@]4(C)CC[C@@H]1[C@]32OO4` [ARTEMISININ], it took 9 nM to reach half-maximal inhibition in assay [2] (IC50).

A word on the IC50: it is the midpoint of a concentration-inhibition curve. Lower therefore signals greater potency in that assay.

(Values after ChEMBL document CHEMBL1145256, “Synthesis of novel 10-deoxoartemisinins” (Bioorg Med Chem Lett, 2005).)
